{"source": "patent EP2921176A2", "about": "“PHARMACEUTICAL COMPOSITION FOR TREATMENT OF PROSTATIC HYPERPLASIA” (priority 2012, dated 2014)", "key": {"[1]": {"system": "prostate gland of rats with BPH", "test": "Morphological and morphometric (light-optical) analysis of the prostate gland in the rat BPH model", "format": "in vivo", "parameters": "key to COLL (score estimate of the content of collagen in the stroma, median): 0: Absent in the field of vision; 1: Thin friable fibers; 2: Thin oriented bunches; 3: Dense interlayers; 4: Zones of fibrosis", "conditions": "for EPIT (volume fraction of the epithelium) / LUMEN (volume fraction of acinar lumens) / STROMA (volume fraction of stroma): mean ± standard error of the mean", "excerpt": "The material was subjected to standard histological processing in accordance with Example 2. Sections were stained according to Van Gieson, as well as with hematoxyline and eosin. In addition to the morphological description of the preparations, a quantitative analysis of the most important morphological parameters of the PG (Table 2) to assess the dynamics of morphological changes. The prostate's functional status (fibrosis, epithelium hyperplasia, retention of the prostatic fluid in acinuses) can be assessed using the epithelium/stroma and epithelium/duct indices. Table 2. Classes of morphological analysis\nThe morphometric analysis was conducted using a Leica DM2500 microscope fitted with a digital photographic camera. The digital images were used to assess structural changes in PG tissues. Volume fractions of acinuses, stroma and epithelium were defined by point counting. Scoring was used to more accurately determine the quantity of collagen fibers because of their small percentage share (around 1-2%) (Table 3). Table 3. The criteria for scoring the quantity of collagen fibers\nA comparison of the groups in terms of different parameters using the Kruskal-Wallis one-way analysis of variance by ranks, Dan and Wilcoxon-Mann-Whitney test data were obtained on intergroup differences at the set level of significance of p < 0,05. […]\n(§1) The animals in those groups were injected intramuscularly (i/m) a mixture of peptides in doses of 50, 150 and 600 mcg/kg/day, alpha1-adrenergic blocker Doxazosin (Zoxon, Zentiva a.s., Czech Republic) in the dose of 1 mg/kg/day and 2nd type 5 alpha-reductase inhibitor Finasteride (Proscar, Merck Sharp & Dohme, The Netherlands) in the dose of 10 mg/kg/day in the stomach (via an intragastral sonde) for 18 days (from day 4), and also the well-known homeopathic drug Prostatine (OOO «Homeofarma», Russia) with 5 pellets into the stomach for 18 days. The rats in the control group received intramuscularly only an isotonic solution of sodium chloride (NaCl) in equivolume quantities.\nThe material was subjected to standard histological processing. For light-optical analysis, pieces of the PG were fixed with 10% neutral formalin, following which histological sections were prepared. The sections were stained according to Van Gieson, and also with hematoxyline and eosin. In addition to morphological description of the microsections, a quantitative evaluation of the most important morphological parameters of the PG for the purpose of objective assessment of the dynamics of morphological changes. A Leica DM2500 microscope with a digital photographic camera was used for morphometric analysis. The digital images were used to assess structural changes in the PG's tissues."}, "[2]": {"system": "prostate gland (PG) in rats with the benign prostatic hyperplasia (BPH)", "format": "in vivo", "conditions": "for Mass of PG, mg At end of experiment / Mass of PG, mg Initial / MF PG (mass factor of the PG): rats with BPH", "protocol": "The effect of the new mixtures of peptides on the mass of the prostate of rats in the model of benign prostate hyperplasia caused by testosterone propionate, was studied on 98 white non-pedigree male rats (mass 220-280 g at the beginning of the experiment), and 10 white non- pedigree male rats with a mass of 22-26 g (acute toxicity was assessed in those animals in a separate series o experiments).\nJ. Med. Food., 2007, Vol. 10, No 4, p. 628-635; Liu H.P., Chen G.L., Liu P., Xu X.P. «Amlodipine alone or combined with terazosin improves lower urinary tract disorder in rat models of benign prostatic hyperplasia or detrusor instability: focus on detrusor overactivity\". BJU Int., 2009, Vol. 104, No 11, p. 1752-1757).\nas §1\nExtraction of the prostatic gland (PG) for morphological (light-optical) analysis was done both before and after the reproduction of BPH (on days 22 and 23). The rats were decapitated under general anesthesia with ether, following which the prostatic gland was extracted and weighed (analytical balance «Sartogosm LV 120-A», Russia, inaccuracy-0.5 mg)."}, "prostate": {"system": "prostate", "conditions": "after 1 to 3 months; cited from earlier work"}, "[3]": {"conditions": "1 mg/kg/day in stomach for 18 days"}, "[4]": {"conditions": "10 mg/kg/day in stomach for 18 days"}}, "note": "Where two headings read alike, the source gives them in different places.", "data": [{"smiles": "COc1cc2nc(N3CCN(C(=O)C4COc5ccccc5O4)CC3)nc(N)c2cc1OC", "note": "(stereo not drawn) [Doxazosin]", "values": [{"measurement": "COLL (score estimate of the content of collagen in the stroma, median)", "setting": "[1]; [3]", "value": 2}, {"measurement": "EPIT/LUMEN (ratio of share of epithelium to share of acinar lumens)", "setting": "[1]; [3]", "value": "36.62 ± 1.19"}, {"measurement": "EPIT/STR (ratio of share of epithelium to share of stroma)", "setting": "[1]; [3]", "value": "75.55 ± 1.34"}, {"measurement": "morphological picture of stroma", "setting": "[1]; [3]", "value": "Inflammation and edema were completely absent in the Doxazosin group, but there were zones of fibrosis"}, {"measurement": "structure (morphology) of epithelium", "setting": "[1]; [3]", "value": "acinuses covered with epithelium with normal morphology alternated with acinuses with hyperplastic epithelium"}, {"measurement": "EPIT (volume fraction of the epithelium)", "setting": "[1]; [3]", "value": "19.79 ± 0.84", "unit": "%"}, {"measurement": "LUMEN (volume fraction of acinar lumens)", "setting": "[1]; [3]", "value": "54.03 ± 1.05", "unit": "%"}, {"measurement": "STROMA (volume fraction of stroma)", "setting": "[1]; [3]", "value": "26.19 ± 0.93", "unit": "%"}, {"measurement": "Mass of PG, mg At end of experiment", "setting": "[2]; [3]", "value": "7.7e+10 ± 7e+09", "unit": "pg"}, {"measurement": "Mass of PG, mg Initial", "setting": "[2]; [3]", "value": "2.38e+11 ± 1.8e+10", "unit": "pg"}, {"measurement": "MF PG (mass factor of the PG)", "setting": "[2]; 1 mg/kg/day in the stomach for 18 days", "value": "virtually unreduced"}]}, {"smiles": "CC(C)(C)NC(=O)[C@H]1CC[C@H]2[C@@H]3CC[C@H]4NC(=O)C=C[C@]4(C)[C@H]3CC[C@]12C", "note": "[Finasteride]", "values": [{"measurement": "COLL (score estimate of the content of collagen in the stroma, median)", "setting": "[1]; [4]", "value": 1}, {"measurement": "EPIT/LUMEN (ratio of share of epithelium to share of acinar lumens)", "setting": "[1]; [4]", "value": "47.31 ± 1.49"}, {"measurement": "EPIT/STR (ratio of share of epithelium to share of stroma)", "setting": "[1]; [4]", "value": "53.41 ± 1.55"}, {"measurement": "morphological picture of stroma", "setting": "[1]; [4]", "value": "highly edemous"}, {"measurement": "structure (morphology) of epithelium", "setting": "[1]; [4]", "value": "caused injury and death of epithelial cells"}, {"measurement": "EPIT (volume fraction of the epithelium)", "setting": "[1]; [4]", "value": "20.06 ± 0.95", "unit": "%"}, {"measurement": "LUMEN (volume fraction of acinar lumens)", "setting": "[1]; [4]", "value": "42.40 ± 1.17", "unit": "%"}, {"measurement": "STROMA (volume fraction of stroma)", "setting": "[1]; [4]", "value": "37.55 ± 1.14", "unit": "%"}, {"measurement": "reduced the mass of the PG (times, compared to the control)", "setting": "[2]; 10 mg/kg/day in stomach for 18 days, p<0,05", "value": 1.4, "unit": "times"}, {"measurement": "MF PG (mass factor of the PG)", "setting": "[2]; [4]", "value": "65±5 mg/100 r mass of the rat"}, {"measurement": "Mass of PG, mg At end of experiment", "setting": "[2]; [4]", "value": "6.5e+10 ± 5e+09", "unit": "pg"}, {"measurement": "Mass of PG, mg Initial", "setting": "[2]; [4]", "value": "1.99e+11 ± 1.4e+10", "unit": "pg"}]}, {"smiles": "C[C@]12C=CC(=O)N[C@@H]1CC[C@@H]1[C@@H]2CC[C@]2(C)[C@@H](C(=O)Nc3cc(C(F)(F)F)ccc3C(F)(F)F)CC[C@@H]12", "note": "[Dutasteride]", "values": [{"measurement": "reduction of the size of the prostate", "setting": "prostate", "value": "more than 20%"}]}]}
